Assay results: PubChem BioAssay AID256 (DTP/NCI, 2004)
Where “and” joins values, the source holds several entries; their conditions need not be identical. Equal values may be shown once. Inconclusive results and toxic doses are left out.

System: CD2F1 mice, L1210 leukemia ip, survival T/C
Assay: NCI In Vivo Anticancer Drug Screen. Data for tumor model L1210 Leukemia (intraperitoneal) in CD2F1 (CDF1) mice
Conditions: higher = longer survival
Outline: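 Transplantable tumor in mice; compound-treated vs vehicle-treated groups. Read-out = treated/control ratio of the measured endpoint.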

[1] = endpoint: mean survival time, dose: 100.0 mg/kg/injection, schedule: Q04DX003 (ip), vehicle: saline with Tween-80
[2] = endpoint: mean survival time, dose: 200.0 mg/kg/injection, schedule: Q04DX003 (ip), vehicle: saline with Tween-80
[3] = endpoint: mean survival time, dose: 100.0 mg/kg/injection, schedule: Q01DX009 (ip), vehicle: saline with Tween-80
[4] = endpoint: mean survival time, dose: 200.0 mg/kg/injection, schedule: Q01DX009 (ip), vehicle: saline with Tween-80
[5] = endpoint: mean survival time, dose: 400.0 mg/kg/injection, schedule: Q01DX009 (ip), vehicle: saline with Tween-80
[6] = endpoint: mean survival time, dose: 400.0 mg/kg/injection, schedule: Q04DX003 (ip), vehicle: saline with Tween-80

SMILES: O=C(O)C1C2CCC(C2)C1C(=O)O (stereo unspecified)
- T/C (endpoint: mean survival time, dose: 25.0 mg/kg/injection, schedule: Q04DX002 (ip), vehicle: saline with Tween-80): 118 % of control
- T/C (endpoint: mean survival time, dose: 50.0 mg/kg/injection, schedule: Q04DX002 (ip), vehicle: saline with Tween-80): 100 % of control
- T/C (endpoint: mean survival time, dose: 100.0 mg/kg/injection, schedule: Q01DX001 (ip), vehicle: Klucel (hydroxypropylcellulose) (HPC)): 108 % of control
- T/C (endpoint: mean survival time, dose: 100.0 mg/kg/injection, schedule: Q04DX002 (ip), vehicle: saline with Tween-80): 89 % of control
- T/C [1]: 105 % of control
- T/C (endpoint: mean survival time, dose: 200.0 mg/kg/injection, schedule: Q01DX001 (ip), vehicle: Klucel (hydroxypropylcellulose) (HPC)): 98 % of control
- T/C (endpoint: mean survival time, dose: 200.0 mg/kg/injection, schedule: Q04DX002 (ip), vehicle: saline with Tween-80): 93 % of control
- T/C [2]: 102 % of control
- T/C (endpoint: mean survival time, dose: 400.0 mg/kg/injection, schedule: Q01DX001 (ip), vehicle: Klucel (hydroxypropylcellulose) (HPC)): 96 % of control

SMILES: Nc1ccn(C2CC(O)C(CO)C2)c(=O)n1 (stereo unspecified)
- T/C (endpoint: mean survival time, dose: 100.0 mg/kg/injection, schedule: Q01DX001 (ip), vehicle: saline): 100 % of control
- T/C (endpoint: mean survival time, dose: 200.0 mg/kg/injection, schedule: Q01DX001 (ip), vehicle: saline): 105 % of control
- T/C (endpoint: mean survival time, dose: 400.0 mg/kg/injection, schedule: Q01DX001 (ip), vehicle: saline): 97 % of control

SMILES: CC(=O)OCC1OC(n2cnc3c(=S)nc(N)[nH]c32)CC1OC(C)=O (stereo unspecified)
- T/C (endpoint: mean survival time, dose: 0.63 mg/kg/injection, schedule: Q01DX005 (ip), vehicle: saline with Tween-80): 101 % of control
- T/C (endpoint: mean survival time, dose: 1.25 mg/kg/injection, schedule: Q01DX005 (ip), vehicle: saline with Tween-80): 117 % of control
- T/C (endpoint: mean survival time, dose: 20.0 mg/kg/injection, schedule: Q01DX005 (ip), vehicle: saline with Tween-80): 156 % of control

SMILES: O=C(O)CCC(=O)O
- T/C (endpoint: mean survival time, dose: 10.0 mg/kg/injection, schedule: Q01DX009 (ip), vehicle: saline): 104 % of control
- T/C (endpoint: mean survival time, dose: 10.0 mg/kg/injection, schedule: Q01DX009 (ip), vehicle: water): 95 % of control and 98 % of control
- T/C (endpoint: mean survival time, dose: 20.0 mg/kg/injection, schedule: Q01DX001 (ip), vehicle: saline): 104 % of control
- T/C (endpoint: mean survival time, dose: 20.0 mg/kg/injection, schedule: Q01DX001 (ip), vehicle: water): 95 % of control and 98 % of control
- T/C (endpoint: mean survival time, dose: 20.0 mg/kg/injection, schedule: Q01DX009 (ip), vehicle: saline): 97 % of control
- T/C (endpoint: mean survival time, dose: 20.0 mg/kg/injection, schedule: Q01DX009 (ip), vehicle: water): 101 % of control and 98 % of control
- T/C (endpoint: mean survival time, dose: 20.0 mg/kg/injection, schedule: Q04DX003 (ip), vehicle: saline): 96 % of control
- T/C (endpoint: mean survival time, dose: 20.0 mg/kg/injection, schedule: Q04DX003 (ip), vehicle: water): 98 % of control
- T/C (endpoint: mean survival time, dose: 40.0 mg/kg/injection, schedule: Q01DX001 (ip), vehicle: saline): 104 % of control
- T/C (endpoint: mean survival time, dose: 40.0 mg/kg/injection, schedule: Q01DX001 (ip), vehicle: water): 103 % of control and 101 % of control
- T/C (endpoint: mean survival time, dose: 40.0 mg/kg/injection, schedule: Q01DX009 (ip), vehicle: saline): 104 % of control
- T/C (endpoint: mean survival time, dose: 40.0 mg/kg/injection, schedule: Q01DX009 (ip), vehicle: water): 97 % of control and 95 % of control
- T/C (endpoint: mean survival time, dose: 40.0 mg/kg/injection, schedule: Q04DX003 (ip), vehicle: saline): 102 % of control
- T/C (endpoint: mean survival time, dose: 40.0 mg/kg/injection, schedule: Q04DX003 (ip), vehicle: water): 96 % of control
- T/C (endpoint: mean survival time, dose: 80.0 mg/kg/injection, schedule: Q01DX001 (ip), vehicle: saline): 103 % of control
- T/C (endpoint: mean survival time, dose: 80.0 mg/kg/injection, schedule: Q01DX001 (ip), vehicle: water): 97 % of control
- T/C (endpoint: mean survival time, dose: 80.0 mg/kg/injection, schedule: Q01DX009 (ip), vehicle: saline): 104 % of control
- T/C (endpoint: mean survival time, dose: 80.0 mg/kg/injection, schedule: Q01DX009 (ip), vehicle: water): 95 % of control and 97 % of control
- T/C (endpoint: mean survival time, dose: 80.0 mg/kg/injection, schedule: Q04DX003 (ip), vehicle: saline): 98 % of control
- T/C (endpoint: mean survival time, dose: 80.0 mg/kg/injection, schedule: Q04DX003 (ip), vehicle: water): 91 % of control and 96 % of control
- T/C (endpoint: mean survival time, dose: 160.0 mg/kg/injection, schedule: Q01DX001 (ip), vehicle: saline): 101 % of control
- T/C (endpoint: mean survival time, dose: 160.0 mg/kg/injection, schedule: Q01DX001 (ip), vehicle: water): 98 % of control and 93 % of control
- T/C (endpoint: mean survival time, dose: 160.0 mg/kg/injection, schedule: Q01DX009 (ip), vehicle: saline): 98 % of control
- T/C (endpoint: mean survival time, dose: 160.0 mg/kg/injection, schedule: Q01DX009 (ip), vehicle: water): 98 % of control and 90 % of control
- T/C (endpoint: mean survival time, dose: 160.0 mg/kg/injection, schedule: Q04DX003 (ip), vehicle: saline): 101 % of control
- T/C (endpoint: mean survival time, dose: 160.0 mg/kg/injection, schedule: Q04DX003 (ip), vehicle: water): 98 % of control and 93 % of control
- T/C (endpoint: mean survival time, dose: 320.0 mg/kg/injection, schedule: Q01DX001 (ip), vehicle: saline): 106 % of control
- T/C (endpoint: mean survival time, dose: 320.0 mg/kg/injection, schedule: Q01DX001 (ip), vehicle: water): 101 % of control
- T/C (endpoint: mean survival time, dose: 320.0 mg/kg/injection, schedule: Q04DX003 (ip), vehicle: saline): 98 % of control
- T/C (endpoint: mean survival time, dose: 320.0 mg/kg/injection, schedule: Q04DX003 (ip), vehicle: water): 87 % of control and 98 % of control
- T/C (endpoint: mean survival time, dose: 640.0 mg/kg/injection, schedule: Q01DX001 (ip), vehicle: saline): 103 % of control
- T/C (endpoint: mean survival time, dose: 640.0 mg/kg/injection, schedule: Q01DX001 (ip), vehicle: water): 101 % of control

SMILES: COc1cc2c3c(cccc3c1)C(=O)N(CCN(C)C)C2=O
- T/C (endpoint: mean survival time, dose: 5.0 mg/kg/injection, schedule: Q01DX009 (ip), vehicle: saline with Tween-80): 98 % of control and 100 % of control
- T/C (endpoint: mean survival time, dose: 10.0 mg/kg/injection, schedule: Q01DX009 (ip), vehicle: saline with Tween-80): 98 % of control and 102 % of control
- T/C (endpoint: mean survival time, dose: 20.0 mg/kg/injection, schedule: Q01DX009 (ip), vehicle: saline with Tween-80): 97 % of control and 101 % of control
- T/C (endpoint: mean survival time, dose: 40.0 mg/kg/injection, schedule: Q01DX009 (ip), vehicle: saline with Tween-80): 100 % of control and 108 % of control
- T/C (endpoint: mean survival time, dose: 80.0 mg/kg/injection, schedule: Q01DX009 (ip), vehicle: saline with Tween-80): 103 % of control and 110 % of control
- T/C (endpoint: mean survival time, dose: 160.0 mg/kg/injection, schedule: Q01DX009 (ip), vehicle: saline with Tween-80): 106 % of control

SMILES: [N-]=[N+]=CC(=O)NCC(=O)NNC(=O)c1ccccc1
- T/C [3]: 105 % of control
- T/C [1]: 96 % of control
- T/C [4]: 107 % of control
- T/C [2]: 104 % of control
- T/C [5]: 108 % of control
- T/C [6]: 105 % of control

SMILES: CCCc1ccc(C(C)=O)cc1
- T/C (endpoint: mean survival time, dose: 75.0 mg/kg/injection, schedule: Q04DX002 (ip), vehicle: saline with Tween-80): 112 % of control
- T/C (endpoint: mean survival time, dose: 150.0 mg/kg/injection, schedule: Q04DX002 (ip), vehicle: saline with Tween-80): 100 % of control

SMILES: Nc1ncnc(N)c1NC(=O)c1ccc(-c2ccccc2)cc1
- T/C (endpoint: mean survival time, dose: 25.0 mg/kg/injection, schedule: Q04DX003 (ip), vehicle: saline with Tween-80): 92 % of control
- T/C (endpoint: mean survival time, dose: 50.0 mg/kg/injection, schedule: Q04DX003 (ip), vehicle: saline with Tween-80): 94 % of control
- T/C [1]: 103 % of control

SMILES: O=C(O)c1cc2c3ccccc3ncc2c2ccccc12
- T/C [1]: 94 % of control
- T/C [2]: 100 % of control
- T/C [6]: 101 % of control

SMILES: C/C(=N/O)c1cc(CN(C)C)oc1C
- T/C (endpoint: mean survival time, dose: 50.0 mg/kg/injection, schedule: Q01DX009 (ip), vehicle: saline with Tween-80): 92 % of control
- T/C (endpoint: mean survival time, dose: 100.0 mg/kg/injection, schedule: Q01DX001 (ip), vehicle: saline with Tween-80): 113 % of control
- T/C [3]: 90 % of control
- T/C (endpoint: mean survival time, dose: 200.0 mg/kg/injection, schedule: Q01DX001 (ip), vehicle: saline with Tween-80): 101 % of control
- T/C [4]: 91 % of control

SMILES: Nc1ncc(C2OC(CO)C(O)C2O)c(N)n1 (stereo unspecified)
- T/C (endpoint: mean survival time, dose: 25.0 mg/kg/injection, schedule: Q01DX009 (ip), vehicle: water): 91 % of control
- T/C (endpoint: mean survival time, dose: 50.0 mg/kg/injection, schedule: Q01DX009 (ip), vehicle: water): 100 % of control
- T/C (endpoint: mean survival time, dose: 100.0 mg/kg/injection, schedule: Q01DX009 (ip), vehicle: water): 95 % of control
- T/C (endpoint: mean survival time, dose: 200.0 mg/kg/injection, schedule: Q01DX009 (ip), vehicle: water): 88 % of control
- T/C (endpoint: mean survival time, dose: 400.0 mg/kg/injection, schedule: Q01DX009 (ip), vehicle: water): 91 % of control

SMILES: CCOC(=O)C(OC(=O)CC)c1ccccc1 (stereo unspecified)
- T/C [3]: 96 % of control
- T/C [4]: 100 % of control
- T/C [5]: 102 % of control

SMILES: Cn1c(-c2ccc(/C=N\N3CCN(/N=C/c4ccc(-c5c[n+]6ccsc6n5C)cc4)CC3)cc2)c[n+]2ccsc12
- T/C (endpoint: median survival time, dose: 0.75 mg/kg/injection, schedule: Q01DX005 (ip), vehicle: saline with Tween-80): 113 % of control
- T/C (endpoint: median survival time, dose: 1.5 mg/kg/injection, schedule: Q01DX005 (ip), vehicle: saline with Tween-80): 115 % of control
- T/C (endpoint: median survival time, dose: 3.0 mg/kg/injection, schedule: Q01DX005 (ip), vehicle: saline with Tween-80): 116 % of control

SMILES: CCOC(=O)C(=Cc1ccc(C=C(C(=O)OCC)C(=O)OCC)cc1)C(=O)OCC
- T/C (endpoint: mean survival time, dose: 50.0 mg/kg/injection, schedule: Q01DX009 (ip), vehicle: Klucel (hydroxypropylcellulose) (HPC)): 95 % of control
- T/C (endpoint: mean survival time, dose: 100.0 mg/kg/injection, schedule: Q01DX009 (ip), vehicle: Klucel (hydroxypropylcellulose) (HPC)): 95 % of control
- T/C (endpoint: mean survival time, dose: 200.0 mg/kg/injection, schedule: Q01DX009 (ip), vehicle: Klucel (hydroxypropylcellulose) (HPC)): 89 % of control
